In ChEMBL document CHEMBL1201862, “PubChem BioAssay data set” (2004):
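Each compound was tested at five concentrations against cells in 96-well plates for 48 hours. GI50 marks 50% less growth.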 Active and inactive are the calls of the source. Cut-off read from the data, not from the text of the source: active = GI50 up to about 1.1 µM and inactive = higher.

Key:
Test in all cases: NCI tumour cell line growth inhibition, 48 h
[1] = system: 786-0
[2] = system: A549
[3] = system: ACHN
[4] = system: CCRF-CEM
[5] = system: COLO 205
[6] = system: EKVX
[7] = system: HCT-116
[8] = system: HL-60
[9] = system: HOP-62
[10] = system: KM12
[11] = system: Malme-3M
[12] = system: NCI-H226
[13] = system: NCI-H23
[14] = system: RPMI-8226
[15] = system: RXF 393
[16] = system: SF-268
[17] = system: SR
[18] = system: UACC-62
[19] = system: UO-31
[20] = system: HOP-92

SMILES	GI50 [1]	GI50 [2]	GI50 [3]	GI50 [4]	GI50 [5]	GI50 [6]	GI50 [7]	GI50 [8]	GI50 [9]	GI50 [10]	GI50 [11]	GI50 [12]	GI50 [13]	GI50 [14]	GI50 [15]	GI50 [16]	GI50 [17]	GI50 [18]	GI50 [19]	GI50 [20]
CCOC(=O)c1ccc(C(=O)n2ccnc2)[nH]1	> 100 µM (inactive)	> 100 µM (inactive)	> 100 µM (inactive)	> 100 µM (inactive)	> 100 µM (inactive)	> 100 µM (inactive)	> 100 µM (inactive)	> 100 µM (inactive)	> 100 µM (inactive)	> 100 µM (inactive)	> 100 µM (inactive)	> 100 µM (inactive)	> 100 µM (inactive)	> 100 µM (inactive)	85.7 µM (inactive)	> 100 µM (inactive)	> 100 µM (inactive)	> 100 µM (inactive)	> 100 µM (inactive)	
CCC1=CCN(c2ccc(C)cc2)OC1c1ccc(OC)cc1 (stereo not given)	> 100 µM (inactive)	71.8 µM (inactive)	> 100 µM (inactive)	56.6 µM (inactive)	> 100 µM (inactive)	> 100 µM (inactive)	59.6 µM (inactive)	68.2 µM (inactive)	> 100 µM (inactive)	> 100 µM (inactive)	66.4 µM (inactive)	> 100 µM (inactive)	39.7 µM (inactive)	43.3 µM (inactive)	69.7 µM (inactive)	> 100 µM (inactive)	47.4 µM (inactive)	> 100 µM (inactive)	90.6 µM (inactive)	
C=C1CC(C)(COc2ccc3c(C)c(C)c(=O)oc3c2C)OC1=O (stereo not given)	1.4 µM (inactive)	7.67 µM (inactive)	2.33 µM (inactive)	0.411 µM (active)	1.06 µM (active)	5.52 µM (inactive)	0.879 µM (active)	0.19 µM (active)	12.5 µM (inactive)	4.54 µM (inactive)	1.39 µM (inactive)	13.7 µM (inactive)	1.82 µM (inactive)	0.594 µM (active)		4.15 µM (inactive)	0.995 µM (active)	1.27 µM (inactive)	9.18 µM (inactive)	1.26 µM (inactive)
CN1CN(c2ccccc2)C2(CCN(CCCC(=O)c3cccs3)CC2)C1=O	35.6 µM (inactive)	29.3 µM (inactive)	40.2 µM (inactive)	30.3 µM (inactive)	17.3 µM (inactive)	31.5 µM (inactive)	30.1 µM (inactive)	52.8 µM (inactive)	19.3 µM (inactive)	75.7 µM (inactive)	54.1 µM (inactive)	34.5 µM (inactive)	51.2 µM (inactive)	29.8 µM (inactive)	> 100 µM (inactive)	74.8 µM (inactive)	53.5 µM (inactive)	> 100 µM (inactive)	33 µM (inactive)	
CCOC(=O)C(NC(=O)N(C1=NCC(C)S1)C1CCCCC1)(OC)C(F)(F)F (stereo not given)	15.5 µM (inactive)	39.1 µM (inactive)	31.2 µM (inactive)	25.2 µM (inactive)	23.2 µM (inactive)	34.8 µM (inactive)	31.6 µM (inactive)	30.2 µM (inactive)	15.8 µM (inactive)	33 µM (inactive)	45.8 µM (inactive)	21.1 µM (inactive)	43.3 µM (inactive)		17.9 µM (inactive)	32.6 µM (inactive)	39.6 µM (inactive)	32.8 µM (inactive)	52 µM (inactive)	46 µM (inactive)
O=C1NC2(CCCCC2)C2CCCCC(O)C12 (stereo not given)	> 100 µM (inactive)	> 100 µM (inactive)	> 100 µM (inactive)	> 100 µM (inactive)	> 100 µM (inactive)	> 100 µM (inactive)	> 100 µM (inactive)	> 100 µM (inactive)	> 100 µM (inactive)	> 100 µM (inactive)	> 100 µM (inactive)	> 100 µM (inactive)	> 100 µM (inactive)	> 100 µM (inactive)	> 100 µM (inactive)	> 100 µM (inactive)	> 100 µM (inactive)	> 100 µM (inactive)	> 100 µM (inactive)	
CCN(CCO)C(=O)C1(c2ccccc2)CCCCC1		> 10 µM (inactive)	> 10 µM (inactive)	> 10 µM (inactive)	> 10 µM (inactive)	> 10 µM (inactive)	> 10 µM (inactive)	> 10 µM (inactive)	> 10 µM (inactive)	> 10 µM (inactive)	> 10 µM (inactive)	> 10 µM (inactive)	> 10 µM (inactive)	> 10 µM (inactive)	> 10 µM (inactive)	> 10 µM (inactive)	> 10 µM (inactive)	> 10 µM (inactive)	> 10 µM (inactive)	
CS(=O)(=O)c1n[nH]c2nc(O)nc(O)c12	> 10 µM (inactive)	> 10 µM (inactive)	> 10 µM (inactive)	> 10 µM (inactive)	> 10 µM (inactive)	> 10 µM (inactive)	> 10 µM (inactive)	> 10 µM (inactive)	> 10 µM (inactive)	> 10 µM (inactive)	> 10 µM (inactive)	> 10 µM (inactive)	> 10 µM (inactive)		> 10 µM (inactive)	> 10 µM (inactive)	> 10 µM (inactive)	> 10 µM (inactive)		> 10 µM (inactive)
COC(=O)c1ccc(NC(=O)c2cc(OC)c(OC)c(OC)c2)cc1	0.859 µM (active)	3.38 µM (inactive)	2.71 µM (inactive)	3.73 µM (inactive)	0.211 µM (active)	38.4 µM (inactive)	0.948 µM (active)	2.09 µM (inactive)	7.6 µM (inactive)	1.02 µM (active)	0.644 µM (active)	2.54 µM (inactive)	0.0279 µM (active)		39.4 µM (inactive)	8.05 µM (inactive)	1.36 µM (inactive)	1.09 µM (active)	2.05 µM (inactive)	6.65 µM (inactive)
CC(C)C(=O)/C=C/c1ccc(Br)cc1	11.2 µM (inactive)	23.8 µM (inactive)	12.7 µM (inactive)	3.15 µM (inactive)	23.4 µM (inactive)	24 µM (inactive)	6.14 µM (inactive)	10.8 µM (inactive)		13.8 µM (inactive)			17.7 µM (inactive)	5.38 µM (inactive)	18.3 µM (inactive)	23 µM (inactive)	7.28 µM (inactive)	14.5 µM (inactive)	16.4 µM (inactive)	16.4 µM (inactive)
BrP(NC1CCCCCC1)(c1ccccc1)(c1ccccc1)c1ccccc1	7.53 µM (inactive)	5.94 µM (inactive)	3.27 µM (inactive)	2.97 µM (inactive)	1.78 µM (inactive)	7.14 µM (inactive)	4.74 µM (inactive)	1.9 µM (inactive)	8.79 µM (inactive)	0.873 µM (active)	2.93 µM (inactive)	13.5 µM (inactive)	5.12 µM (inactive)	1.03 µM (active)	2.2 µM (inactive)	2.88 µM (inactive)	3.88 µM (inactive)	3.03 µM (inactive)	4.25 µM (inactive)	
